{
  "source": "patent US20090318556A1",
  "about": "“BIOMARKERS FOR DETECTING RADIATION EXPOSURE: METHODS AND USES THEREOF” (priority 2008, published 2009)",
  "origin": "cited, not measured here",
  "key": {"PPARα": {"biological_target": "T1, PPARα (Mus musculus, UniProt P23204)", "T1 construct": "host or cells: mice (whole animal, endogenous receptor)", "T1 sequence (P23204 1-468)": "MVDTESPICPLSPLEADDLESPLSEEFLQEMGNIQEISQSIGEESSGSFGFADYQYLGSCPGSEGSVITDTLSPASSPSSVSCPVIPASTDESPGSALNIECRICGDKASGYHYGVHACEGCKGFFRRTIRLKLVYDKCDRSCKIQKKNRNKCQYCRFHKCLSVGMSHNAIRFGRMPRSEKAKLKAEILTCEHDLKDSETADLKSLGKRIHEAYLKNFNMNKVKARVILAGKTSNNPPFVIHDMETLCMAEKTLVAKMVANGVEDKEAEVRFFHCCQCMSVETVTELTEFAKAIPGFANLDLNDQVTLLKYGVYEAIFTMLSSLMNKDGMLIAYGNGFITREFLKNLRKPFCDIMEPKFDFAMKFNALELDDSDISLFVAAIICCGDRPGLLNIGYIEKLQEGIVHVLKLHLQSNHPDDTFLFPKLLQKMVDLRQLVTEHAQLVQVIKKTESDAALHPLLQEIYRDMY", "conditions": "mice"}, "[1]": {"conditions": "in vivo, iv"}},
  "data": [
    {"smiles": "CCCCCC(=O)NCC(=O)O", "note": "[N-Hexanoylglycine]", "values": [
      {"measurement": "urinary excretion reduced after activation of PPARα", "setting": "PPARα", "result": 20, "unit": "fold"}
    ]},
    {"smiles": "Cc1cn([C@H]2C[C@H](O)[C@@H](CO)O2)c(=O)[nH]c1=O", "note": "[[^3H]thymidine]", "values": [
      {"measurement": "radioactivity in urine relative to plasma", "setting": "[1]", "result": "approximately 100 times"}
    ]}
  ]
}
